Values after ≈ are worked out from the molar mass of the structure shown. Read-outs that look alike come from different tables or passages of the source.
Key:
in vitro = settings: human, hep-2 cells
[1] = test system: respiratory syncytial virus RSVA2 (subgroup A); assay: Anti-RSV activity (RSVA2) in HEp-2 cells, crystal violet staining of cytopathic effect; format: cell-based; settings: for EC50 / IC50: human respiratory syncytial virus; for EC50: read-out: Anti-RSVA2 ED50; for activity against subgroup A (RSVA2): in words
[2] = Cellular toxicity, minimal toxic dose that inhibits all growth, HEp-2; format: cell-based; settings: human, hep-2 cells
Method: (§1) The cytotoxic activities for the compounds of Examples 1 and 2, amantadine and ribavirin were determined in five different cell lines.

[3] = test system: respiratory syncytial virus RSV-9320 (subgroup B); assay: Anti-RSV activity (RSV-9320) in HEp-2 cells; format: cell-based; settings: for IC50: human respiratory syncytial virus; for activity against subgroup B (RSV-9320): in words
[4] = Cellular toxicity, minimal toxic dose that inhibits all growth, MDCK; format: cell-based, Canine; settings: dog
Method: as §1

[5] = Cellular toxicity, minimal toxic dose that inhibits all growth, MRC-5; format: cell-based; settings: human, mrc-5 cells
Method: as §1

[6] = Cellular toxicity, minimal toxic dose that inhibits all growth, Vero; format: cell-based; settings: monkey, vero cells
Method: as §1

[7] = Cellular toxicity (TD50) in the anti-RSV test; settings: human, hep-2 cells
[8] = Cellular toxicity, minimal toxic dose that inhibits all growth, A549; format: cell-based; settings: human, a549 cells
Method: as §1

FluA/WSN = assay: Anti-flu activity against FluA/WSN in MDCK cells; format: cell-based, influenza A virus
[9] = Solubility at 100 μg/ml (footnote of Table 4); format: physicochemical; settings: footnote a of Table 4
[10] = 72 h, Table 2, HEp-2 cells, compound added 2 h before infection, 3 days
[11] = Table 4, HEp-2, read-out: Minimal Toxic Dose that Inhibits All Growth, HEp-2
[12] = HEp-2, read-out: Median Inhibitory Concentration (IC50), RSV-9320
[13] = Table 4, MDCK, read-out: Minimal Toxic Dose that Inhibits All Growth, MDCK
[14] = Table 4, MRC-5, read-out: Minimal Toxic Dose that Inhibits All Growth, MRC-5
[15] = Table 4, Vero, read-out: Minimal Toxic Dose that Inhibits All Growth, Vero
[16] = Table 4, A549, read-out: Minimal Toxic Dose that Inhibits All Growth, A549
[17] = Table 3, HEp-2 cells, read-out: Median Inhibitory Concentration (IC50), RSV-9320
[18] = Table 3, HEp-2 cells, read-out: Median Inhibitory Concentration (IC50), RSVA2

Cc1nc(=O)c(C#N)c(NCCN(C)C)[nH]1 [Compound 6]
CC50 at 72 h (in vitro): > 16 µg/mL
EC50 [1, 10]: 5 µg/mL (≈ 22.6 µM)

Cc1nc(=O)c(Cl)c(NCc2cncc(Br)c2)[nH]1 [Compound 13]
CC50 at 72 h (in vitro): > 16 µg/mL
EC50 [1, 10]: 0.016 µg/mL (≈ 0.0485 µM)

Cc1nc(=O)c(Br)c(NCc2ccsc2)[nH]1 [Compound 11]
CC50 at 72 h (in vitro): > 16 µg/mL
EC50 [1, 10]: 0.5 µg/mL (≈ 1.67 µM)

Cc1nc(=O)c(Br)c(NCCN(C)C)[nH]1 [Compound 16]
CC50 at 72 h (in vitro): > 16 µg/mL
EC50 [1, 10]: 0.16 µg/mL (≈ 0.582 µM)

Cc1nc(NCc2cncc(Br)c2)c(Br)c(=O)[nH]1 [Compound 17]
CC50 at 72 h (in vitro): > 16 µg/mL
EC50 [1, 10]: 0.016 µg/mL (≈ 0.0428 µM)

COc1ccc(Br)cc1CCNc1[nH]c(C)nc(=O)c1Br [Compound 14]
CC50 at 72 h (in vitro): > 16 µg/mL
EC50 [1, 10]: 0.5 µg/mL (≈ 1.2 µM)

Cc1nc(=O)c(C#N)c(NCc2ccccc2)[nH]1 [Compound 5]
CC50 at 72 h (in vitro): > 16 µg/mL
EC50 [1, 10]: 1.6 µg/mL (≈ 6.66 µM)

Cc1nc(=O)c(Br)c(NCc2ccc3c(c2)OCO3)[nH]1 [Compound 10]
CC50 at 72 h (in vitro): > 16 µg/mL
EC50 [1, 10]: 0.05 µg/mL (≈ 0.148 µM)

CCCN(CCC)CCNc1[nH]c(C)nc(=O)c1Br [Compound 9]
CC50 at 72 h (in vitro): > 16 µg/mL
EC50 [1, 10]: 1.6 µg/mL (≈ 4.83 µM)

Cc1nc(=O)c(F)c(NCc2cccnc2)[nH]1 [Compound 15]
CC50 at 72 h (in vitro): > 16 µg/mL
EC50 [1, 10]: 0.05 µg/mL (≈ 0.213 µM)

NC(=O)c1ncn([C@@H]2O[C@H](CO)[C@@H](O)[C@H]2O)n1 [Ribavirin, ribavirin, reference compound]
MCC [2, 11]: 50 µg/mL
IC50 [3, 12]: 5 µg/mL (≈ 20.5 µM)
MCC [4, 13]: 100 µg/mL
MCC [5, 14]: 100 µg/mL
MCC [6, 15]: 100 µg/mL
CC50 at 72 h [7]: 50 µg/mL (≈ 205 µM)
EC50 ([1]; HEp-2, 72 h): 1.6 to 5 µg/mL (≈ 6.55 to 20.5 µM)
IC50 ([1]; HEp-2, read-out: Median Inhibitory Concentration (IC50), RSVA2): 1.6 to 5 µg/mL (≈ 6.55 to 20.5 µM)
MCC [8, 16]: 100 µg/mL

Cc1nc(O)c(C#N)c(NCCc2ccncc2)n1 [Compound 4]
CC50 at 72 h (in vitro): > 16 µg/mL
EC50 [1, 10]: 0.16 µg/mL (≈ 0.627 µM)

Cc1nc(=O)c(Br)c(NCc2cncc(C#N)c2)[nH]1 [Compound 2]
MCC [2]: 50 µg/mL
CC50 at 72 h (in vitro): > 16 µg/mL
activity against subgroup B (RSV-9320) ([3]; HEp-2 cells): active
IC50 [3, 17]: ≤ 0.16 µg/mL
anti-flu activity against FluA/WSN (FluA/WSN): inactive
MCC ([4]; mdck): > 50 µg/mL
MCC [5]: > 50 µg/mL
MCC [6]: > 50 µg/mL
solubility at 100 μg/ml [9]: Not completely soluble
activity against subgroup A (RSVA2) ([1]; HEp-2 cells): active
EC50 [1, 10]: 0.05 µg/mL (≈ 0.156 µM)
IC50 [1, 18]: ≤ 0.16 µg/mL
MCC [8]: > 50 µg/mL

CC(C)(C)c1nc(O)c(C#N)c(NCc2cccnc2)n1 [Compound 3]
CC50 at 72 h (in vitro): > 16 µg/mL
EC50 [1, 10]: 1.6 to 5 µg/mL (≈ 5.65 to 17.6 µM)

Cc1nc(=O)c(C#N)c(NCCN2CCCC2)[nH]1 [Compound 7]
CC50 at 72 h (in vitro): 16 µg/mL (≈ 64.7 µM)
EC50 [1, 10]: 1.6 µg/mL (≈ 6.47 µM)

Cc1nc(=O)c(Br)c(NCCc2cccnc2)[nH]1 [Compound 8]
CC50 at 72 h (in vitro): > 16 µg/mL
EC50 [1, 10]: 0.005 µg/mL (≈ 0.0162 µM)

Cc1nc(=O)c(C#N)c(NCCc2cccnc2)[nH]1 [Compound 1]
MCC [2]: > 100 µg/mL
CC50 at 72 h (in vitro): > 16 µg/mL
activity against subgroup B (RSV-9320) ([3]; HEp-2 cells): active
IC50 [3, 17]: ≤ 0.16 µg/mL
anti-flu activity against FluA/WSN (FluA/WSN): inactive
MCC ([4]; mdck): > 100 µg/mL
MCC [5]: 100 µg/mL
MCC [6]: > 100 µg/mL
activity against subgroup A (RSVA2) ([1]; HEp-2 cells): active
EC50 [1, 10]: 0.05 µg/mL (≈ 0.196 µM)
IC50 [1, 18]: ≤ 0.16 µg/mL
MCC [8]: > 100 µg/mL

C=CCOc1ccc(CCNc2[nH]c(C)nc(=O)c2Br)cc1OC [Compound 12]
CC50 at 72 h (in vitro): > 16 µg/mL
EC50 [1, 10]: 0.5 µg/mL (≈ 1.27 µM)

NC12CC3CC(CC(C3)C1)C2 [Amantadine, amantadine, reference compound]
MCC [2, 11]: 100 µg/mL
IC50 [3, 12]: 16 µg/mL (≈ 106 µM)
MCC [4, 13]: > 100 µg/mL
MCC [5, 14]: 100 µg/mL
MCC [6, 15]: 100 µg/mL
CC50 at 72 h [7]: 100 µg/mL (≈ 661 µM)
EC50 ([1]; HEp-2, 72 h): 50 µg/mL (≈ 331 µM)
MCC [8, 16]: > 100 µg/mL

From patent publication US5256668A, “Aminopyrimidine derivatives as antiviral agents for respiratory syncytial virus” (American Home Products Corporation, priority 1993, dated 1993)
